In test [1] the target is T1, GST-tagged Tnks-2 (873-1166 aa) (Homo sapiens, UniProt Q9H2K2).
T1 construct: GST-tagged Tnks-2 (873-1166 aa, prepared in-house); made in house
The experiment in a line: TNKS2 activity ELISA (autoparsylation assay). It is filed as biochemical. The protocol: (§1) Description of the TNKS1 and TNKS2 ELISA Assay
(§2) Biochemical Activity Testing of TNKS 1 and 2: Activity ELISA (Autoparsylation Assay)
(§3) For analysis of autoparsylation activity of TNKS 1 and 2 an activity ELISA is performed: In the first step GST tagged TNKS is captured on a Glutathione coated plate. Then the activity assay with biotinylated NAD is performed in the absence/presence of the compounds. During the enzymatic reaction GST tagged TNKS transfers biotinylated ADP-ribose to itself from biotinylated NAD as co-substrate. For the detection streptavidin-HRP conjugate is added that binds to the biotinylated TNKS and is thereby captured to the plates. The amount of biotinylated resp. autoparsylated TNKS is detected with a luminescence substrate for HRP. The level of the luminescence signal correlates directly with the amount of autoparsylated TNKS and therefore with activity of TNKS.
(§4) The activity ELISA is performed in 384 well Glutathione coated microtiter plates (Express capture Glutathione coated plate, Biocat, Heidelberg, Germany). The plates are pre-equilibrated with PBS. Then the plates are incubated with 50 μl 20 ng/well GST-tagged Tnks-1 (1023-1327 aa, prepared in-house), respectively GST-tagged Tnks-2 (873-1166 aa, prepared in-house) in assay buffer (50 mM HEPES, 4 mM Mg-chloride, 0.05% Pluronic F-68, 2 mM DTT, pH 7.7) overnight at 4° C. The plates are washed 3 times with PBS-Tween-20. The wells are blocked by incubation at room temperature for 20 minutes with 50 μl blocking buffer (PBS, 0.05% Tween-20, 0.5% BSA). Afterwards the plates are washed 3 times with PBS-Tween-20. The enzymatic reaction is performed in 50 μl reaction solution (50 mM HEPES, 4 mM Mg-chloride, 0.05% Pluronic F-68, 1.4 mM DTT, 0.5% DMSO, pH 7.7) with 10 μM bio-NAD (Biolog, Life science Inst., Bremen, Germany) as co-substrate in the absence or presence of the test compound (10 dilution concentrations) for 1 hour at 30° C. The reaction is stopped by 3 times washing with PBS-Tween-20. For the detection 50 μl of 20 ng/μl Streptavidin, HRP conjugate (MoBiTec, Göttingen, Germany) in PBS/0.05% Tween-20/0.01% BSA are added and the plates are incubated for 30 minutes at room temperature. After three times washing with PBS-Tween-20 50 μl of SuperSignal ELISA Femto Maximum sensitivity substrate solution (ThermoFisherScientific (Pierce), Bonn, Germany) are added. Following a 1 minute incubation at room temperature luminescence signals are measured with an Envision multimode reader (Perkin Elmer LAS Germany GmbH) at 700 nm. The full value used is the inhibitor-free reaction. The pharmacological zero value used is XAV-939 (Tocris) in a final concentration of 5 μM. The inhibitory values (1050) are determined using either the program Symyx Assay Explorer® or Condosseo® from GeneData.
On the technique in general: In an ELISA, binding on a coated surface is turned into a signal by an enzyme label.

Test [2] has as its target T2, GST-tagged Tankyrase-2 (873-1166 aa) (Homo sapiens, UniProt Q9H2K2).
T2 construct: GST-tagged Tankyrase-2 (873-1166 aa)
The experiment in a line: Tankyrase 2 autoparsylation assay (HTRF enzyme assay). It is filed as biochemical. Here is the method:
(§5) Biochemical Activity Testing of Tankyrase 1 and 2: Autoparsylation Assay
(§6) The autoparsylation assay is run in two steps: the enzymatic reaction in which GST-tagged Tankyrase-1, resp Tankyrase-2 transferred biotinylated ADP-ribose to itself from biotinylated NAD as co-substrate and the detection reaction where a time resolved FRET between cryptate labelled anti-GST bound to the GST tag of the enzyme and Xlent® labelled-streptavidin bound the biotin-parsylation residue is analysed. The autoparsylation activity was detectable directly via the increase in HTRF signal.
(§7) The autoparsylation assay is performed as 384-well HTRF® (Cisbio, Codolet, France) assay format in Greiner low volume nb 384-well microtiter plates and is used for high throughput screen. 250 nM GST-tagged Tankyrase-1 (1023-1327 aa), respectively about 250 nM GST-tagged Tankyrase-2 (873-1166 aa) and 5 μM bio-NAD (Biolog, Life science Inst., Bremen, Germany) as co-substrate are incubated in a total volume of 5 μl (50 mM HEPES, 4 mM Mg-chloride, 0.05% Pluronic F-68, 1.4 mM DTT, 0.5% DMSO, pH 7.7) in the absence or presence of the test compound (10 dilution concentrations) for 90 min at 30° C. The reaction is stopped by the addition of 1 μl 50 mM EDTA solution. 2 μl of the detection solution (1.6 μM SA-Xlent® (Cisbio, Codolet, France), 7.4 nM Anti-GST-K® (Eu-labelled anti-GST, Cisbio, Codolet, France) in 50 mM HEPES, 800 mM KF, 0.1% BSA, 20 mM EDTA, 0.1% CHAPS, pH 7.0) are added. After 1 h incubation at room temperature the HTRF is measured with an Envision multimode reader (Perkin Elmer LAS Germany GmbH) at excitation wavelength 340 nm (laser mode) and emission wavelengths 615 nm and 665 nm. The ratio of the emission signals is determined. The full value used is the inhibitor-free reaction. The pharmacological zero value used is XAV-939 (Tocris) in a final concentration of 5 μM. The inhibitory values (IC50) are determined using either the program Symyx Assay Explorer® or Condosseo® from GeneData.

Test [3] concerns the target T3, GST-tagged Tnks-1 (1023-1327 aa) (Homo sapiens, UniProt O95271).
T3 construct: GST-tagged Tnks-1 (1023-1327 aa, prepared in-house); made in house
The experiment in a line: TNKS1 activity ELISA (autoparsylation assay). It is filed as biochemical. Here is the method: as §1, §2, §3, §4

In test [4] the target is T4, GST-tagged Tankyrase-1 (1023-1327 aa) (Homo sapiens, UniProt O95271).
T4 construct: GST-tagged Tankyrase-1 (1023-1327 aa)
The experiment in a line: Tankyrase 1 autoparsylation assay (HTRF enzyme assay). It is filed as biochemical. The protocol:
as §5, §6, §7
Background: Time-resolved FRET reads energy transfer from a long-lived donor to a nearby acceptor.

Another test relates to tankyrase 1/2. The experiment in a line: Cellular inhibition of Tankyrase: increase of Axin2 level in DLD1 cells (Luminex). It is filed as cell-based. The note with it: 24 hours, read-out: EC50 tankyrase 1/2 (cell assay). Here is the method: Measurement of Cellular Inhibition of Tankyrase
Since Tankyrases have been described to modulate cellular level of Axin2 (Huang et al., 2009; Nature) the increase of Axin2 level is used as read-out for determination of cellular inhibition of Tankyrases in a Luminex based assay.
Cells of the colon carcinoma cell line DLD1 are plated in 96 well plates with 1.5×10^4 cells per well. Next day, cells are treated with a serial dilution of test compound in seven steps as triplicates with a final DMSO concentration of 0.3%. After 24 hours, cells are lysed in lysis buffer (20 mM Tris/HCl pH 8.0, 150 mM NaCl, 1% NP40, 10% Glycerol) and lysates are cleared by centrifugation through a 96 well filter plate (0.65 μm). Axin2 protein is isolated from cell lysates by incubation with a monoclonal anti-Axin2 antibody (R&D Systems #MAB6078) that is bound to fluorescent carboxybeads. Then, bound Axin2 is specifically detected with a polyclonal anti-Axin2 antibody (Cell Signaling #2151) and an appropriate PE-fluorescent secondary antibody. The amount of isolated Axin2 protein is determined in a Luminex^200 machine (Luminex Corporation) according to the manufacturer's instruction by counting 100 events per well. Inhibition of Tankyrase by test compounds results in higher levels of Axin2 which directly correlates with an increase of detectable fluorescence. As controls cells are treated with solvent alone (neutral control) and with a Tankyrase reference inhibitor IWR-2 (3E-06 M) which refers as control for maximum increase of Axin2. For analysis, the obtained data are normalized against the untreated solvent control and fitted for determination of the EC50 values using the Assay Explorer software (Accelrys).

T1 sequence (Q9H2K2 873-1166): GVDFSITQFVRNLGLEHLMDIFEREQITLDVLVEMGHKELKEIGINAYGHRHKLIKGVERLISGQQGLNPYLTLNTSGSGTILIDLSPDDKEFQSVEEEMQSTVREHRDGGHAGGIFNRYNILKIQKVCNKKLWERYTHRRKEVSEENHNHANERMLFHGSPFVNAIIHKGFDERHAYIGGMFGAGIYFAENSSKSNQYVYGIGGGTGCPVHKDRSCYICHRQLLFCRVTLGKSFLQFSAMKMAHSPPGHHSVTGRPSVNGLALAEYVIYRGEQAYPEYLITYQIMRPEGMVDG
T2 sequence (Q9H2K2 873-1166): as above
T4 sequence (O95271 1023-1327): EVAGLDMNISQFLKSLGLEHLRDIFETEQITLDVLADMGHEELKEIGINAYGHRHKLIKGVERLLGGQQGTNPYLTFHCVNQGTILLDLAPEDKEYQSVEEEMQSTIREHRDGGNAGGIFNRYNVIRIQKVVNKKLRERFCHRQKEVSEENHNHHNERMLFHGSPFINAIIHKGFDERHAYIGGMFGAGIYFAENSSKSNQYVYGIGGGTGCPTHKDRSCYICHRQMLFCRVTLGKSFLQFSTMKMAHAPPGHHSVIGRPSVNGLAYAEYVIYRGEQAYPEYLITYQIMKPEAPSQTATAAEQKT
T3 sequence (O95271 1023-1327): as above

For orientation: IC50 means the concentration at which inhibition is half-maximal. Low readings indicate greater potency, high ones weaker potency. Consider `CC(C)(C)c1ccc(-c2cn3nccc3c(=O)[nH]2)cc1` [Compound A15, 6-(4-tert-butyl-phenyl)-5H-pyrazolo[1,5-a]pyrazin-4-one], for which the IC50 in test [1], in test [2], in test [3] and in test [4] was less than 300 nM each time. In addition, the EC50 with tankyrase 1/2 was less than 300 nM.

For the molecule `Cc1cc2c(=O)[nH]c(-c3ccc(N4CCCC4)cc3)cn2n1` [Compound A37, 2-methyl-6-(4-pyrrolidin-1-yl-phenyl)-5H-pyrazolo[1,5-a]pyrazin-4-one], the IC50 in test [2] is 300 to 3000 nM; in test [3], less than 300 nM; in test [4] it was less than 300 nM. The EC50 in the test with tankyrase 1/2 fell in the range of 300 to 3000 nM.

Take `CC(C)(C)c1ccc(-c2cn3nc(CO)cc3c(=O)[nH]2)cc1` [Compound A18, 6-(4-tert-butyl-phenyl)-2-hydroxymethyl-5H-pyrazolo[1,5-a]pyrazin-4-one]: the concentration for half-maximal inhibition (IC50) in test [1] was less than 300 nM; in test [2], 300 to 3000 nM; in test [3], less than 300 nM; in test [4], less than 300 nM. The EC50 with tankyrase 1/2 fell in the range of 300 to 3000 nM.

As for `O=c1[nH]c(-c2ccc(C3(O)COC3)cc2)cn2cccc12` [Compound A110], the IC50 in test [1] is less than 300 nM; in test [2], 300 to 3000 nM; in test [3] it was less than 300 nM; in test [4], less than 300 nM. Besides, the EC50 in the test with tankyrase 1/2 is 300 to 3000 nM.

Turning to `CC(C)(C)c1ccc(-c2cn3cc(C#N)cc3c(=O)[nH]2)cc1` [Compound A92, 3-(4-tert-butyl-phenyl)-1-oxo-1,2-dihydro-pyrrolo[1,2-a]pyrazine-7-carbonitrile], the IC50 is less than 300 nM in test [1], 300 to 3000 nM in test [2], less than 300 nM in test [3] and less than 300 nM in test [4]. The EC50 in the test with tankyrase 1/2 was in the range of 3000 to 50000 nM.

Take `Cc1ccc2c(=O)[nH]c(-c3ccc(C(C)(C)O)cc3)cn12` [Compound A95]: in test [1], the IC50 was less than 300 nM. Besides, in the test with tankyrase 1/2, the EC50 was less than 300 nM.

`CN1CCC(c2ccc(-c3cn4cc(F)cc4c(=O)[nH]3)cc2)CC1` [Compound A81, 7-fluoro-3-[4-(1-methyl-piperidin-4-yl)-phenyl]-2H-pyrrolo[1,2-a]pyrazin-1-one]: the IC50 in test [1] was less than 300 nM; in test [2], 300 to 3000 nM; in test [3] it was less than 300 nM; in test [4] it was less than 300 nM. Moreover, the EC50 in the test with tankyrase 1/2 was 300 to 3000 nM.

As for `Cc1cc2c(=O)[nH]c(-c3ccc(C(C)(C)C)cc3)cn2c1` [Compound A38, 3-(4-tert-butyl-phenyl)-7-methyl-2H-pyrrolo[1,2-a]pyrazin-1-one], the IC50 in test [1] and in test [3] was less than 300 nM throughout. Also, the EC50 with tankyrase 1/2 was less than 300 nM.
